Measured values: patent publication US20100248255A1, “NOVEL PEPTIDES” (KYOWA HAKKO KOGYO CO., LTD, priority 2005, published 2010)
Read-outs that look alike come from different tables or passages of the source. No end group written: not given here.

Assays:
[1] = test system: cardiac cells of the apoaequorin-expressing mice; assay: Intracellular calcium ion increase (aequorin luminescence), heart of apoaequorin-expressing mice; type: cell-based, mouse; details: for intracellular calcium concentration in cardiac cells (RLU per second): added at 25 seconds; for luminescence in the heart: organ pieces, peptide final concentrations of 1 μmol/L and of 5 μmol/L
Procedure: (§1) A heart or blood vessel is collected from transgenic mice systemically expressing apoaequorin (WO02/010371) produced by introducing an apoaequorin gene expression vector into fertilized eggs. The obtained heart or blood vessel is cut finely into pieces, suspended in a medium containing coelenterazine, and then incubated to incorporate coelenterazine into the cells to form aequorin (a complex of apoaequorin and coelenterazine). Since aequorin luminesces upon binding to intracellular calcium ions, the relative luminescence level in cells before and after addition of a medium containing the peptide or a pharmaceutically acceptable salt thereof is measured in a luminometer every second over time and is used as an indicator of intracellular calcium ion concentration. Increase in the relative luminescence level due to addition of the peptide or pharmaceutically acceptable salt thereof confirms that the peptide or pharmaceutically acceptable salt thereof has the activity to increase intracellular calcium ion concentration.
(§2) Whether Peptides 1 to 5, 9 and 10 synthesized in Example 2 have the activity of increasing intracellular calcium ion concentration was investigated using the organs of transgenic mice introduced with the apoaequorin gene and systemically expressing apoaequorin (hereinafter referred to as apoaequorin-expressing mice). In apoaequorin-expressing mouse cells, light is emitted when apoaequorin binds to a calcium ion in the presence of the luminescent substrate coelenterazine and thus the intracellular calcium ion concentration can be monitored. Patent Document (WO02/010371) discloses the method for producing apoaequorin-expressing mice, method for evaluating biologically active substances that use biological samples derived from the mice, and experimental results of evaluating biologically active peptides using the mouse organs as shown below. […] Therefore, apoaequorin-expressing mice can be used in the evaluation of the physiological activities of novel peptides.
(§3) Apoaequorin-expressing mice were produced according to the method disclosed in Reference Example 4 of Patent Document (WO02/010371). The apoaequorin-expressing mice were sacrificed, individual organs including thymus, spleen, bone, blood vessel, heart, kidney, adrenal gland, pancreas, pituitary gland, and uterus, were removed; and each of the organs was cut into small cubes of approximately 1 to 2 mm^3. Next, in 5-mL tubes (Rohren-Tubes; manufactured by Sarstedt, No. 55.476), three portions of each of the prepared organs were added to 50 μL of a 10 μmol/L solution of coelenterazine (manufactured by Molecular Probes) dissolved in RPMI 1640 medium, and these were cultured at 37° C. for three hours. After culturing, RPMI 1640 medium was added, and then Peptides 1 to 5, 9 and 10 dissolved in RPMI 1640 medium were added 25 seconds after the addition of RPMI 1640 until each peptide had final concentrations of 1 μmol/L and of 5 μmol/L, and the relative luminescence levels were measured every second immediately after the addition of RPMI 1640 medium by using a luminometer (AutoLumat LB953, manufactured by Berthold).

[2] = test system: vascular cells of the apoaequorin-expressing mice; assay: Intracellular calcium ion increase (aequorin luminescence), blood vessel of apoaequorin-expressing mice; type: cell-based, mouse; details: for intracellular calcium concentration in vascular cells (RLU per second): 5 μmol/L of peptide, added at 25 seconds; for luminescence in the blood vessel: organ pieces, peptide final concentrations of 1 μmol/L and of 5 μmol/L
Procedure: as §1, §2, §3

[3] = test system: antiserum (rabbit, Peptide 7-KLH conjugate as antigen); assay: Binding specificity of antiserum by competitive RIA with [125I]-labeled Peptide 1
Procedure: As controls, reactions that use RIA buffer instead of the antiserum to measure non-specific binding, and reactions […] that use RIA buffer instead of VGF-derived peptide solutions to measure the maximum binding level were carried out. Reactions for non-specific binding were performed in quadruplicates, and the other reactions were performed in duplicates, and for each of the reactants, the immune complex was precipitated as in the above-mentioned antibody titer measurements, and its radioactivity (cpm) was measured. The average radioactivity of non-specific binding reaction is defined as non-specific binding level N, the radioactivity value for each VGF-derived peptide addition reaction is defined as Y, and the radioactivity value of maximum binding reaction is defined as Z. The percentage ratio (B/B0) of antiserum specific binding level (B) with peptide addition to the maximum binding level (B0), was determined using the following formula.
B/B0 (%)={(Y−N)/(Z−N)}×100
Accordingly, the amount of peptide that achieves 50% B/B0, more specifically, the amount of peptide that yields 50% inhibition of the maximum binding level, was used as an indicator of the peptide binding activity to the antiserum.
The amounts of peptide/tube used for performing the measurements were 0.5, 1, 2, 4, 8, 16, 32, 64, 128, 256, 512 and 1024 fmol for Peptide 1; 1, 2, 4, 8, 16, 32, 64, 128, 256, 512 and 1024 fmol for Peptide 2; 1, 3.3, 10, 33, 100, 333, 1000, 3300, 10,000, 33,000, 100,000, 333,000 and 1,000,000 fmol for Peptide 3; and 1,000, 10,000, 100,000 and 1,000,000 fmol for Peptide 8.

[4] = test system: vascular cells of the apoaequorin-expressing mice; details: final concentration of 1 μmol/L; reported in WO02/010371; cited from earlier work
adrenal gland = details: final concentration of 1 μmol/L; reported in WO02/010371; cited from earlier work
uterus [5] = details: final concentration of 1 μmol/L; reported in WO02/010371; cited from earlier work
[6] = direct administration to the paraventricular nucleus of the hypothalamus of male rats; Non-Patent Document 6; cited from earlier work
thymus = assay: Aequorin luminescence, thymus of apoaequorin-expressing mice; type: cell-based, mouse; details: organ pieces, peptide final concentrations of 1 μmol/L and of 5 μmol/L
Text: as §2, §3

spleen = assay: Aequorin luminescence, spleen of apoaequorin-expressing mice; type: cell-based, mouse; details: organ pieces, peptide final concentrations of 1 μmol/L and of 5 μmol/L
Text: as §2, §3

pituitary gland = assay: Aequorin luminescence, pituitary gland of apoaequorin-expressing mice; type: cell-based, mouse; details: organ pieces, peptide final concentrations of 1 μmol/L and of 5 μmol/L
Text: as §2, §3

uterus [7] = assay: Aequorin luminescence, uterus of apoaequorin-expressing mice; type: cell-based, mouse; details: organ pieces, peptide final concentrations of 1 μmol/L and of 5 μmol/L
Text: as §2, §3

[8] = target: antiserum showing an antibody titer of 9×10^5 (rabbit antiserum raised against the conjugate between Peptide 7 and KLH); assay: competitive RIA against [^125I]-labeled Peptide 1
[9] = non-VGF peptides at 1, 10, and 100 pmol
[10] = VGF-derived peptides, sequentially diluted

With “Peptide 10: positions 533 to 552 of the amino acid sequence of human VGF (EEDEVYPPGPYHPFPNYIRP; synthetic Peptide 10, positions 533-552 of human VGF, C-terminal VGF-derived peptide)” the “intracellular calcium concentration in cardiac cells (RLU per second)” value ([1]; 1 μmol/L of peptide) was “increase of intracellular calcium concentration”, the “luminescence in the heart” value [1] was “luminescence was observed” and the “intracellular calcium concentration in vascular cells (RLU per second)” value [2] was “increase in the intracellular calcium concentration”. For the same molecule, the “luminescence in the blood vessel” value [2] was “luminescence was observed”.

For “Met-enkephalin-Arg-Gly-Leu (YGGFMRGL) [non-VGF peptide]”, the “inhibition of antiserum binding to [125I]-labeled Peptide 1” value (from here on “inhibition of antiserum binding”) [3, 9] was “none of the peptides showed inhibition”.

In the case of `NC(=O)CC[C@@H]1NC(=O)[C@H](Cc2ccccc2)NC(=O)[C@H](Cc2ccc(O)cc2)NC(=O)[C@@H](N)CSSC[C@@H](C(=O)N2CCC[C@H]2C(=O)N[C@@H](CCCN=C(N)N)C(=O)NCC(N)=O)NC(=O)[C@H](CC(N)=O)NC1=O` [vasopressin], the “inhibition of antiserum binding” value [3, 9] is reported as “none of the peptides showed inhibition”.

In the case of “angiotensin II (DRVYIHPF) [non-VGF peptide]”, the “inhibition of antiserum binding” value [3, 9] is listed as “none of the peptides showed inhibition”, the “luminescence in the blood vessels” value [4] is listed as “strong luminescence was observed” and the “luminescence in the adrenal glands” value (adrenal gland) is listed as “strong luminescence was observed”. The “luminescence in the uterus” value (uterus [5]) was “strong luminescence was observed”.

With substance K the “inhibition of antiserum binding” value [3, 9] was “none of the peptides showed inhibition”.

In the case of calcitonin receptor-stimulating peptide, the “inhibition of antiserum binding” value [3, 9] is reported as “none of the peptides showed inhibition”.

For “rat VGF (599-617): partial peptide of rat VGF (556-617), positions 599-617 (LQEQEELENYIEHVLLHRP; UniProt P20156 599-617, looked up, fragment)”, the erection inducing activity [6] is listed as “showed an erection inducing activity”.

In the case of neuromedin U-8, the “inhibition of antiserum binding” value [3, 9] is reported as “none of the peptides showed inhibition”.

With “Peptide 4: positions 586 to 615 of human VGF; same sequence as peptide V derived from bovine VGF (AQEEAEAEERRLQEQEELENYIEHVLLRRP; synthetic Peptide 4, positions 586-615 of human VGF, C-terminal VGF-derived peptide)” the “intracellular calcium concentration in vascular cells (RLU per second)” value [2] was “increase of intracellular calcium concentration”, the “luminescence in the blood vessel” value [2] was “luminescence was observed” and the “luminescence in the thymus” value (thymus) was “luminescence was observed”. The “luminescence in the spleen” value (spleen) was “luminescence was observed” and the “luminescence in the pituitary gland” value (pituitary gland) was “luminescence was observed”.

In the case of “rat VGF (556-576): partial peptide of rat VGF, positions 556-576”, the erection inducing activity [6] is listed as “this activity was not observed”.

With PAMP-20 the “inhibition of antiserum binding” value [3, 9] was “none of the peptides showed inhibition”.

In the case of “rat VGF (577-617): partial peptide of rat VGF (556-617), positions 577-617 (HHPDLEAQARRAQEEADAEERRLQEQEELENYIEHVLLHRP; UniProt P20156 577-617, looked up, fragment)”, the erection inducing activity [6] is given as “showed an erection inducing activity”.

For “rat VGF (588-617): partial peptide of rat VGF (556-617), positions 588-617 (AQEEADAEERRLQEQEELENYIEHVLLHRP; UniProt P20156 588-617, looked up, fragment)”, the erection inducing activity [6] is listed as “showed an erection inducing activity”.

For adrenomedulin, the “inhibition of antiserum binding” value [3, 9] was “none of the peptides showed inhibition”.

With corticotropin-releasing factor the “inhibition of antiserum binding” value [3, 9] was “none of the peptides showed inhibition”.

With calcitonin the “inhibition of antiserum binding” value [3, 9] was “none of the peptides showed inhibition”.

With “PHI-27 (HADGVFTSDFSKLLGQLSAKKYLESLM; ends and bridges not checked; UniProt P01282 81-107, looked up) [non-VGF peptide]” the “inhibition of antiserum binding” value [3, 9] was “none of the peptides showed inhibition”.

For “Peptide 8: positions 606 to 615 of the human VGF amino acid sequence (YIEHVLLRRP; synthetic Peptide 8, positions 606-615 of human VGF, C-terminal VGF-derived peptide)”, the “inhibition of antiserum binding” value [3, 10] was “did not show any inhibition”.

In the case of HYHHALPPSRHYP [Peptide 1], the “intracellular calcium concentration in cardiac cells (RLU per second)” value ([1]; 1 μmol/L of peptide) is reported as “increase of intracellular calcium concentration”, the “luminescence in the heart” value [1] is reported as “luminescence was observed” and the “luminescence in the thymus” value (thymus) is reported as “luminescence was observed”. The “luminescence in the pituitary gland” value (pituitary gland) was “luminescence was observed”, the “luminescence in the uterus” value (uterus [7]) was “luminescence was observed” and the “inhibition of antiserum binding” value [3, 10] was “same degree of quantity-dependent inhibition”. For the same molecule, the “amount of peptide for 50% inhibition of the maximum binding level (50% B/B0)” value ([3]; antiserum diluted 9×10^5 folds, 4° C. for 40 hours) was 7.5 fmol.

In the case of Leu-enkephalin, the “inhibition of antiserum binding” value [3, 9] is reported as “none of the peptides showed inhibition”.

In the case of “Peptide 9: positions 485 to 503 of the amino acid sequence of human VGF (NAPPEPVPPPRAAPAPTHV; synthetic Peptide 9, positions 485-503 of human VGF, C-terminal VGF-derived peptide)”, the “intracellular calcium concentration in vascular cells (RLU per second)” value [2] is reported as “increase of intracellular calcium concentration” and the “luminescence in the blood vessel” value [2] is reported as “luminescence was observed”.

B1: Peptide 3 (SEQ ID NO: 2) (peptide)
peptide: H-TLQPPSALRRRHYHHALPPSRHYPGREAQA-OH
B1 showed a fold amount required for the same degree of inhibition as Peptides 1 and 2 [8] of 10000 fold.

B2: Peptide 5: positions 554 to 615 in the amino acid sequence of human VGF (peptide)
chain: TLQPPSALRRRHYHHALPPSRHYPGREAQARRAQEEAEAEERRLQEQEELENYIEHVLLRRP
modifications: synthetic Peptide 5, positions 554-615 of human VGF, C-terminal VGF-derived peptide
For B2, the “intracellular calcium concentration in cardiac cells (RLU per second)” value ([1]; 5 μmol/L of peptide) was “increase of intracellular calcium concentration” and the “luminescence in the heart” value [1] was “luminescence was observed”.
